Like-named read-outs stand apart in the source and are kept apart here. One block for each compound: values may come before it. Where a SMILES comes first, the peptide text is derived from it. Bridges are numbered along the chain shown (N, C = ends). Where no end group is shown, it is not given here. [ ]: non-standard residue; d: D form. 2Nal = N[C@@H](Cc1ccc2ccccc2c1)C(=O)O; Cit = NC(=O)NCCC[C@H](N)C(=O)O
Columns and labels:
[1] = system: CXCR4-positive Jurkat cells; test: cells; format: cell-based, human
Procedure: Jurkat cells were washed twice in assay buffer (see above), dispensed into a 96-well plate (5x10^5 cells per well) containing serial dilutions of compounds (in assay buffer) and incubated at RT in the dark for 10 minutes. […] Suspensions of 1.87x10^4 cells were transferred to the chemotaxis insert plate. […] After removal of the insert plate, migrated cells were centrifuged and resuspended in DPBS containing flow cytometry cell counting beads ([…] Fluorescent Particles; Gentaur, London, UK). Both migrated cells and particles were counted by flow cytometry (FACSCanto II; Becton Dickinson). Each compound concentration was tested in triplicate. Data were analyzed using the FlowJo software and the total number of migrated cells was calculated, according to the counted and total number of beads present in the sample.

in vitro [2] = format: cell-based; conditions: human
Procedure: Freshly isolated peripheral blood mononuclear cells (PBMCs) were isolated out of buffy coats from healthy donors (Red Cross, Belgium). They were cultured in RPMI medium with 10% FBS, 2 mM L-glutamine and stimulated with 2 μg/ml phytohemagglutinin (PHA; Sigma-Aldrich) for three days before use in the HIV replication assays (see below).
Jurkat cells (3x10^5 cells per well in culture medium) were incubated with serial dilutions of compound at room temperature (RT) for two hours. Cytotoxicity of the compounds was also evaluated at 37°C over a longer period of time in MT-4 cells (5x10^4 cells per well in culture medium, four day incubation) and PHA-stimulated PBMCs (5x10^5 cells per well in culture medium, ten day incubation) because these cell types were used in anti-HIV activity assays which last up to ten days (see below). Each condition was tested in duplicate. Cytotoxicity was evaluated microscopically and, in addition, cell viability was assessed using the colorimetric CellTiter 96 AQueous One Solution Cell Proliferation Assay (Promega, Fitchburg, WI, USA), which is based on the reduction of the tetrazolium salt MTS [3-(4,5-dimethylthiazol-2-yl)-5-(3-carboxymethoxyphenyl)-2-(4-sulfophenyl)-2H-tetrazolium] to formazan by metabolically active cells. Absorbance at 490 nm was measured with the VersaMax ELISA Microplate Reader (Molecular Devices, Sunnyvale, CA, USA). […]

CXCR4 [3] = target: T1, CXCR4 (Homo sapiens, UniProt P61073); test: Calcium mobilization assay (FLIPR Tetra) in U87.CD4.CXCR4 cells; format: cell-based; conditions: for IC50: read-out: IC50 Calcium signaling (CXCL12-induced); for agonist activity on intracellular calcium flux: in absence of CXCL12
T1 sequence (P61073 whole entry): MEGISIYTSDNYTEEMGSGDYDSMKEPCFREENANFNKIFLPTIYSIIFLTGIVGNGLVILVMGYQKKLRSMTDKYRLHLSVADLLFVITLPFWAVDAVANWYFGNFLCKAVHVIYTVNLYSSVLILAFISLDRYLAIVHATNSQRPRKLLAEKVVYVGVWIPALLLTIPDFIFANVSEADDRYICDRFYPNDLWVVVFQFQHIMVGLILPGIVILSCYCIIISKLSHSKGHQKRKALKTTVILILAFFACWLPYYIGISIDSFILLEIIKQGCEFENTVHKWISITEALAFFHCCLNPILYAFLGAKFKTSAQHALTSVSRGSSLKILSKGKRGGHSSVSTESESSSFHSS
Procedure: U87.CD4.CXCR4 cells were seeded at 2x10^4 cells per well in gelatin-coated black-walled 96-well plates [0.1% gelatin in DPBS, incubated at RT for two hours and washed once with DPBS] and incubated at 37°C and 5% CO2 overnight. […] Fluo-2 AM loaded cells were washed with assay buffer before being incubated in the FLIPR Tetra system at 37°C for five minutes. At the start of the kinetic measurement, compounds were added to the cell plate by the internal robotic system followed by an incubation period of 10 minutes during which changes in the intracellular calcium level were continuously measured by the FLIPR Tetra. […] Each condition was measured in triplicate and repeated several times as further indicated (see Results).

CXCR4 [4] = target: T1, CXCR4; test: CXCL12^AF647 binding assay on Jurkat cells; conditions: read-out: IC50 CXCL12-CXCR4 binding interaction
Procedure: In brief, Jurkat cells were washed twice in assay buffer [Hank’s Balanced Salt Solution (HBSS; Thermo Fisher Scientific), 20 mM HEPES buffer (Thermo Fisher Scientific), 0.2% bovine serum albumin (Sigma-Aldrich), pH 7.4]. […] Afterwards, cells were washed twice in assay buffer and subsequently fixed in 1% paraformaldehyde in Dulbecco’s phosphate buffered saline (DPBS). Samples were analyzed with the FACSArray flow cytometer (Becton Dickinson, NJ, USA). Data were further analyzed with the FlowJo Software (Ashland, Oregon, USA).

HIV-1 NL4-3 (X4) [5] = test: microbe, parasite or virus in culture; format: cell-based
Procedure: PHA-stimulated PBMCs at 5x10^5 cells per sample, pre-incubated with test compounds dissolved in cell culture medium containing IL-2 (2 ng/ml; […] After three days, fresh culture medium with IL-2 was added. Ten days post infection cell supernatant was collected for HIV-1 p24 core antigen enzyme-linked immunosorbent assay (ELISA; Perkin Elmer, Boston, MA, USA) according to the manufacturer’s protocol. In the antiviral assays, each condition was tested in duplicate.

CXCR4 [6] = target: T1, CXCR4; test: CXCR4 internalization assay in SUP-T1 cells; format: cell-based; design: CXCR4 receptors endogenously expressed on SUP-T1 cells; endogenous in cells; host or cells: SUP-T1 (ATCC); conditions: for induction of CXCR4 internalization (agonistic effect): in absence of CXCL12, data not shown
Procedure: T-lymphoblastic SUP-T1 cells were washed twice in DPBS containing 2% FBS. Afterwards, cells were first incubated with the PE-labeled rat anti-human CXCR4 mAb (clone 1D9; 2 μg/ml in DPBS/2% FBS; BD Pharmingen) on ice for 45 minutes. […] SUP-T1 cells were subsequently washed once with ice cold DPBS and twice with ice cold assay buffer (see above) before being treated with test compound on ice for 15 minutes. […] Samples were immediately analyzed with the FACSCalibur flow cytometer (Becton Dickinson) whereby the measured fluorescence corresponds to the amount of […] CXCR4 receptors. Data were further analyzed with the FlowJo software.

HIV-1 NL4-3 (X4) [7] = test: microbe, parasite or virus in culture; format: cell-based; remark: listed apart in the source
Procedure: The anti-HIV replication assays in MT-4 cells and PHA-stimulated PBMCs have been described previously. The HIV-1 T-tropic molecular clone NL4-3 (X4) was obtained from the National Institute of Allergy and Infectious Disease (NIAID) AIDS reagent program (Bethesda, MD, USA). Briefly, 5x10^4 MT-4 cells (in cell culture medium) were treated with different concentrations of compound at 37°C for 30 minutes. Afterwards, a 50% tissue culture infectious dose of the NL4-3 viral stock was added to the cell-compound mixtures. Four days post infection, the cytopathic effect was evaluated microscopically and cell viability was assessed with the MTS method, as described above.
In the antiviral assays, each condition was tested in duplicate.

in vitro [8] = format: cell-based; conditions: human; remark: listed apart in the source
Procedure: Jurkat cells (3x10^5 cells per well in culture medium) were incubated with serial dilutions of compound at room temperature (RT) for two hours. Cytotoxicity of the compounds was also evaluated at 37°C over a longer period of time in MT-4 cells (5x10^4 cells per well in culture medium, four day incubation) and PHA-stimulated PBMCs (5x10^5 cells per well in culture medium, ten day incubation) because these cell types were used in anti-HIV activity assays which last up to ten days (see below). Each condition was tested in duplicate. Cytotoxicity was evaluated microscopically and, in addition, cell viability was assessed using the colorimetric CellTiter 96 AQueous One Solution Cell Proliferation Assay (Promega, Fitchburg, WI, USA), which is based on the reduction of the tetrazolium salt MTS [3-(4,5-dimethylthiazol-2-yl)-5-(3-carboxymethoxyphenyl)-2-(4-sulfophenyl)-2H-tetrazolium] to formazan by metabolically active cells. Absorbance at 490 nm was measured with the VersaMax ELISA Microplate Reader (Molecular Devices, Sunnyvale, CA, USA). The cytotoxic concentration 50 (CC50) of each compound was calculated based on the absorbance of negative (i.e. cells without compound) and positive (i.e. only culture medium) control samples.

Compound: CC(C)=CCC[C@]1(C)C=Cc2c(O)c3c(c(CC=C(C)C)c2O1)O[C@]12C(=C[C@@H]4C[C@H]1C(C)(C)O[C@@]2(C/C=C(/C)C(=O)O)C4=O)C3=O [gambogic acid]
IC50 ([1]; Homo sapiens, Jurkat, 2 h, read-out: IC50 Chemotaxis): 1890 nM | CC50 at 10 days (in vitro [2]): ~300 nM | IC50 (CXCR4 [3]): 4.37 µM | IC50 (CXCR4 [4]): 7.06 µM | IC50 (HIV-1 NL4-3 (X4) [5]; Human immunodeficiency virus 1, NL43, PBMC, 240 h, PHA-stimulated PBMCs, ten days post infection, p24 Ag ELISA, mean ± SEM, read-out: IC50 HIV-1 (X4) NL4-3 replication, PHA-stimulated PBMCs): > 225 nM | IC50 (CXCR4 [6]): > 10 µM | induction of CXCR4 internalization (agonistic effect) (CXCR4 [6]; 10 μM): absence of an agonistic effect | IC50 (HIV-1 NL4-3 (X4) [7]; Human immunodeficiency virus 1, NL43, MT4, 96 h, MT-4 cells, four days post infection, MTS, mean ± SEM, read-out: IC50 HIV-1 (X4) NL4-3 replication, MT-4 cells): > 376 nM | CC50 at 2 h (in vitro [8]): 10 µM | CC50 at 4 days (in vitro [8]): ~300 nM

IC50 [1]: 73.7 ± 26 nM | IC50 (HIV-1 NL4-3 (X4) [5]; NL4-3 (X4)): 10.4 ± 4.8 nM | induction of CXCR4 internalization (agonistic effect) (CXCR4 [6]; 50 μM): absence of an agonistic effect | IC50 (HIV-1 NL4-3 (X4) [7]; NL4-3 (X4)): 13.5 ± 7.1 nM
Compound: N=C(N)NCCC[C@H](NC(=O)[C@@H]1CSSC[C@H](NC(=O)[C@H](Cc2ccc3ccccc3c2)NC(=O)[C@H](CCCNC(=N)N)NC(=O)[C@@H](N)CCCNC(=N)N)C(=O)N[C@@H](Cc2ccc(O)cc2)C(=O)N[C@@H](CCCNC(=N)N)C(=O)N[C@@H](CCCCN)C(=O)N[C@H](CCCCN)C(=O)N2CCC[C@H]2C(=O)N[C@@H](Cc2ccc(O)cc2)C(=O)N[C@@H](CCCNC(=N)N)C(=O)N[C@@H](CCCNC(N)=O)C(=O)N1)C(=O)O [T140] (H-RR[2Nal]CYRK[dK]PYR[Cit]CR-OH; disulfide 4-13 (inferred); N-terminus and C-terminus assumed)

Compound: N=C(N)NCCC[C@H](NC(=O)[C@@H]1CSSC[C@H](NC(=O)[C@H](Cc2c[nH]c3ccccc23)NC(=O)[C@H](CCCNC(=N)N)NC(=O)[C@@H](N)CCCNC(=N)N)C(=O)N[C@@H](Cc2ccc(O)cc2)C(=O)N[C@@H](CCCNC(=N)N)C(=O)N[C@@H](CCCCN)C(=O)N[C@H]2CSSC[C@H](NC(=O)[C@H](Cc3ccc(O)cc3)NC(=O)CNC(=O)[C@H](CCCCN)NC(=O)[C@H](Cc3ccc(O)cc3)NC2=O)C(=O)N[C@@H](Cc2ccc(O)cc2)C(=O)N[C@@H](CCCNC(=N)N)C(=O)N[C@@H](CCCCN)C(=O)N1)C(N)=O [T22, (Tyr^5.12,Lys^7)-Polyphemusin II] (H-RRWCYRKCYKGYCYRKCR-NH2; disulfide 4-17, 8-13 (inferred); N-terminus and C-terminus assumed)
induction of CXCR4 internalization (agonistic effect) (CXCR4 [6]; 50 μM): absence of an agonistic effect

Compound: KGVSLSYRKRYSLSVGK-NH2 [CTCE-9908]
agonist activity on intracellular calcium flux (CXCR4 [3]; 20 μM): this activity was lost | agonist activity on intracellular calcium flux (CXCR4 [3]; 100 μM): very weak agonist activity | induction of CXCR4 internalization (agonistic effect) (CXCR4 [6]; 100 μM): absence of an agonistic effect

IC50 ([1]; Jurkat cells, 6.25 nM CXCL12, two hours, mean ± SEM, read-out: IC50 Chemotaxis): > 100000 nM | IC50 (CXCR4 [3]; U87.CD4.CXCR4 cells, 6.25 nM CXCL12, mean ± SEM): > 100 µM | IC50 (CXCR4 [4]; Jurkat cells, 2.9 nM CXCL12^AF647, mean ± SEM): 51.9 µM | IC50 (HIV-1 NL4-3 (X4) [5]; PHA-stimulated PBMCs, ten days post infection, p24 Ag ELISA, mean ± SEM, read-out: IC50 HIV-1 (X4) NL4-3 replication, PHA-stimulated PBMCs): > 100000 nM | induction of CXCR4 internalization (agonistic effect) (CXCR4 [6]; 100 μM): absence of an agonistic effect | IC50 (CXCR4 [6]; SUP-T1 cells, 6.25 nM CXCL12, 37°C 30 minutes, mean ± SEM): > 100 µM | IC50 (HIV-1 NL4-3 (X4) [7]; MT-4 cells, four days post infection, MTS, mean ± SEM, read-out: IC50 HIV-1 (X4) NL4-3 replication, MT-4 cells): > 100000 nM
Compound: CN(C)CCN(CCN(C)C)CCN(C)C [Me6TREN]
